Results published in ChEMBL document CHEMBL3885881, “DrugMatrix”.

Organism: Rattus norvegicus
Assay: DrugMatrix - Regimen: Daily Repeat
Format: toxicity, organism-based, Sprague-Dawley
Parameters: regimen Daily Repeat, gender Male, age 6-8 weeks
Details: in vivo, po, route oral GAVAGE, […]; for ABSOLUTE BASOPHIL / BASOPHIL / ABSOLUTE EOSINOPHIL / ABSOLUTE LYMPHOCYTE / ABSOLUTE MONOCYTE / ABSOLUTE SEGMENTED NEUTROPHIL / EOSINOPHIL / ERYTHROCYTE COUNT / HEMATOCRIT / HEMOGLOBIN / LEUKOCYTE COUNT / LYMPHOCYTE / MEAN CORPUSCULAR HEMOGLOBIN / MEAN CORPUSCULAR HEMOGLOBIN CONCENTRATION / MEAN CORPUSCULAR VOLUME / MONOCYTE / NEUTROPHIL / NUCLEATED RED BLOOD CELLS / PLATELET COUNT: tissue Blood; for ALANINE AMINOTRANSFERASE / ALBUMIN / ALKALINE PHOSPHATASE / ASPARTATE AMINOTRANSFERASE / BLOOD UREA NITROGEN / CARBON DIOXIDE / CHOLESTEROL / CREATINE PHOSPHOKINASE / CREATININE / GLUCOSE / LACTATE DEHYDROGENASE / LIPASE / TOTAL BILIRUBIN / TOTAL PROTEIN / URIC ACID: tissue Plasma
[1] = 0 mg/kg, 72 h, dose level Control, time 3 day
[2] = 0 mg/kg, 120 h, dose level Control, time 5 day
[3] = 10 mg/kg, 72 h, dose level M1, time 3 day
[4] = 10 mg/kg, 120 h, dose level M1, time 5 day
[5] = 32 mg/kg, 72 h, dose level M2, time 3 day
[6] = 32 mg/kg, 120 h, dose level M2, time 5 day

Structure (SMILES): CC/C(=C(\c1ccccc1)c1ccc(OCCN(C)C)cc1)c1ccccc1 [TAMOXIFEN]
- ABSOLUTE BASOPHIL [1]: 0 CELLS/uL
- BASOPHIL [1]: 0%
- ABSOLUTE BASOPHIL [2]: 0 CELLS/uL
- BASOPHIL [2]: 0%
- ABSOLUTE BASOPHIL [3]: 0 CELLS/uL
- ABSOLUTE EOSINOPHIL [3]: 39 CELLS/uL
- ABSOLUTE LYMPHOCYTE [3]: 8296.33 CELLS/uL
- ABSOLUTE MONOCYTE [3]: 168.33 CELLS/uL
- ABSOLUTE SEGMENTED NEUTROPHIL [3]: 529.67 CELLS/uL
- BASOPHIL [3]: 0%
- EOSINOPHIL [3]: 0.33%
- ERYTHROCYTE COUNT [3]: 5.69 x10E6/uL
- HEMATOCRIT [3]: 36.07%
- HEMOGLOBIN [3]: 13.53 G/DL
- LEUKOCYTE COUNT [3]: 9.03 x10E3/uL
- LYMPHOCYTE [3]: 92.33%
- MEAN CORPUSCULAR HEMOGLOBIN [3]: 23.9 pg
- MEAN CORPUSCULAR HEMOGLOBIN CONCENTRATION [3]: 37.57 G/DL
- MEAN CORPUSCULAR VOLUME [3]: 63.63 fL
- MONOCYTE [3]: 1.67%
- NEUTROPHIL [3]: 5.67%
- NUCLEATED RED BLOOD CELLS [3]: 0 /100WBC
- PLATELET COUNT [3]: 1296.33 x10E3/uL
- ALANINE AMINOTRANSFERASE [3]: 62.67 u/L
- ALBUMIN [3]: 4 G/DL
- ALKALINE PHOSPHATASE [3]: 415 u/L
- ASPARTATE AMINOTRANSFERASE [3]: 79.33 u/L
- BLOOD UREA NITROGEN [3]: 9.67 mg/dL
- CARBON DIOXIDE [3]: 28.33 mmol/L
- CHOLESTEROL [3]: 52.67 mg/dL
- CREATINE PHOSPHOKINASE [3]: 228 u/L
- CREATININE [3]: 0.2 mg/dL
- GLUCOSE [3]: 179 mg/dL
- LACTATE DEHYDROGENASE [3]: 97.33 u/L
- LIPASE [3]: 9.33 u/L
- TOTAL BILIRUBIN [3]: 0.13 mg/dL
- TOTAL PROTEIN [3]: 5.57 G/DL
- URIC ACID [3]: 1.9 mg/dL
- ABSOLUTE BASOPHIL [4]: 0 CELLS/uL
- ABSOLUTE EOSINOPHIL [4]: 119.33 CELLS/uL
- ABSOLUTE LYMPHOCYTE [4]: 10935 CELLS/uL
- ABSOLUTE MONOCYTE [4]: 173 CELLS/uL
- ABSOLUTE SEGMENTED NEUTROPHIL [4]: 706 CELLS/uL
- BASOPHIL [4]: 0%
- EOSINOPHIL [4]: 1%
- ERYTHROCYTE COUNT [4]: 6.34 x10E6/uL
- HEMATOCRIT [4]: 39.5%
- HEMOGLOBIN [4]: 15 G/DL
- LEUKOCYTE COUNT [4]: 11.93 x10E3/uL
- LYMPHOCYTE [4]: 91.67%
- MEAN CORPUSCULAR HEMOGLOBIN [4]: 23.67 pg
- MEAN CORPUSCULAR HEMOGLOBIN CONCENTRATION [4]: 37.97 G/DL
- MEAN CORPUSCULAR VOLUME [4]: 62.37 fL
- MONOCYTE [4]: 1.33%
- NEUTROPHIL [4]: 6%
- NUCLEATED RED BLOOD CELLS [4]: 0 /100WBC
- PLATELET COUNT [4]: 1194 x10E3/uL
- ALANINE AMINOTRANSFERASE [4]: 55.67 u/L
- ALBUMIN [4]: 4.53 G/DL
- ALKALINE PHOSPHATASE [4]: 463 u/L
- ASPARTATE AMINOTRANSFERASE [4]: 84 u/L
- BLOOD UREA NITROGEN [4]: 10.33 mg/dL
- CARBON DIOXIDE [4]: 27 mmol/L
- CHOLESTEROL [4]: 49.33 mg/dL
- CREATINE PHOSPHOKINASE [4]: 234 u/L
- CREATININE [4]: 0.24 mg/dL
- GLUCOSE [4]: 120 mg/dL
- LACTATE DEHYDROGENASE [4]: 120 u/L
- LIPASE [4]: 9.33 u/L
- TOTAL BILIRUBIN [4]: 0.1 mg/dL
- TOTAL PROTEIN [4]: 6.33 G/DL
- URIC ACID [4]: 2.4 mg/dL
- ABSOLUTE BASOPHIL [5]: 0 CELLS/uL
- ABSOLUTE EOSINOPHIL [5]: 54 CELLS/uL
- ABSOLUTE LYMPHOCYTE [5]: 12289.67 CELLS/uL
- ABSOLUTE MONOCYTE [5]: 92.33 CELLS/uL
- ABSOLUTE SEGMENTED NEUTROPHIL [5]: 964 CELLS/uL
- BASOPHIL [5]: 0%
- EOSINOPHIL [5]: 0.33%
- ERYTHROCYTE COUNT [5]: 6.02 x10E6/uL
- HEMATOCRIT [5]: 39.07%
- HEMOGLOBIN [5]: 14.67 G/DL
- LEUKOCYTE COUNT [5]: 13.4 x10E3/uL
- LYMPHOCYTE [5]: 91.67%
- MEAN CORPUSCULAR HEMOGLOBIN [5]: 24.4 pg
- MEAN CORPUSCULAR HEMOGLOBIN CONCENTRATION [5]: 37.53 G/DL
- MEAN CORPUSCULAR VOLUME [5]: 64.97 fL
- MONOCYTE [5]: 0.67%
- NEUTROPHIL [5]: 7.33%
- NUCLEATED RED BLOOD CELLS [5]: 0 /100WBC
- PLATELET COUNT [5]: 1258 x10E3/uL
- ALANINE AMINOTRANSFERASE [5]: 66.67 u/L
- ALBUMIN [5]: 4.63 G/DL
- ALKALINE PHOSPHATASE [5]: 371.33 u/L
- ASPARTATE AMINOTRANSFERASE [5]: 106.67 u/L
- BLOOD UREA NITROGEN [5]: 5.67 mg/dL
- CARBON DIOXIDE [5]: 26.33 mmol/L
- CHOLESTEROL [5]: 43.33 mg/dL
- CREATINE PHOSPHOKINASE [5]: 723.67 u/L
- CREATININE [5]: 0.2 mg/dL
- GLUCOSE [5]: 150.33 mg/dL
- LACTATE DEHYDROGENASE [5]: 184.33 u/L
- LIPASE [5]: 9.33 u/L
- TOTAL BILIRUBIN [5]: 0.1 mg/dL
- TOTAL PROTEIN [5]: 6.03 G/DL
- URIC ACID [5]: 2.5 mg/dL
- ABSOLUTE BASOPHIL [6]: 0 CELLS/uL
- ABSOLUTE EOSINOPHIL [6]: 0 CELLS/uL
- ABSOLUTE LYMPHOCYTE [6]: 12430.67 CELLS/uL
- ABSOLUTE MONOCYTE [6]: 227.33 CELLS/uL
- ABSOLUTE SEGMENTED NEUTROPHIL [6]: 2075.33 CELLS/uL
- BASOPHIL [6]: 0%
- EOSINOPHIL [6]: 0%
- ERYTHROCYTE COUNT [6]: 6.29 x10E6/uL
- HEMATOCRIT [6]: 39.17%
- HEMOGLOBIN [6]: 14.9 G/DL
- LEUKOCYTE COUNT [6]: 14.73 x10E3/uL
- LYMPHOCYTE [6]: 84.33%
- MEAN CORPUSCULAR HEMOGLOBIN [6]: 23.7 pg
- MEAN CORPUSCULAR HEMOGLOBIN CONCENTRATION [6]: 38.07 G/DL
- MEAN CORPUSCULAR VOLUME [6]: 62.27 fL
- MONOCYTE [6]: 1.67%
- NEUTROPHIL [6]: 14%
- NUCLEATED RED BLOOD CELLS [6]: 0 /100WBC
- PLATELET COUNT [6]: 1261.33 x10E3/uL
- ALANINE AMINOTRANSFERASE [6]: 65.67 u/L
- ALBUMIN [6]: 4.73 G/DL
- ALKALINE PHOSPHATASE [6]: 464.33 u/L
- ASPARTATE AMINOTRANSFERASE [6]: 99 u/L
- BLOOD UREA NITROGEN [6]: 11.33 mg/dL
- CARBON DIOXIDE [6]: 27.33 mmol/L
- CHOLESTEROL [6]: 40.33 mg/dL
- CREATINE PHOSPHOKINASE [6]: 288.67 u/L
- CREATININE [6]: 0.23 mg/dL
- GLUCOSE [6]: 136.67 mg/dL
- LACTATE DEHYDROGENASE [6]: 164.33 u/L
- LIPASE [6]: 9.67 u/L
- TOTAL BILIRUBIN [6]: 0.1 mg/dL
